Results from patent US10000467B2, “Cyanine compounds” (Pierce Biotechnology, Inc., priority 2012, dated 2018).

What was measured:
HDAC2 = assay: Immunofluorescence in U2OS cells, rabbit-anti-HDAC2 primary antibody; format: cell-based, human
Description: (§1) The inventive compounds and commercial dye were evaluated for immunofluorescence in cell based assays using the following protocol. Plates containing U2OS cells (human osteosarcoma cell line) were fixed in 4% paraformaldehyde in PBS/0.1% Triton X-100 for 15 min at room temperature. The cells were then […] with 2% BSA in PBS/0.1% Triton X-100 for 15 min at room temperature. Negative controls contain only 2% BSA/PBS-0.1% Triton-X100 blocker. Diluted primary antibodies, mouse-anti-protein disulphide isomerase (PDI) or rabbit-anti-HDAC2, diluted in 2% BSA/PBS-0.1% Triton-X100 were added to the plates and incubated for one hour at room temperature. Negative controls contain only 2% BSA/PBS-0.1% Triton-X100 blocker. The plates were washed 3×100 μl with PBS. Based on the calculated protein concentrations, the conjugates made in Example 22 were diluted to 4 μg/ml in PBS/0.1% Triton X-100 and added to the plates (50 μl/well) and incubated one hour in the dark at room temperature. After incubation, the […] antibody solution was removed from the plates, and the plates were washed 3×100 μl with PBS. One hundred μl of 0.1 μg/ml Hoechst dye in PBS was added per well. The plates were then scanned on an ArrayScan® Plate Reader for imaging and quantitation.

[1] = tested on: protein disulphide isomerase (PDI); assay: Immunofluorescence in U2OS cells, mouse-anti-PDI primary antibody; format: cell-based, human; conditions: FIGS. 17-19; GAM conjugates at 2.5×-15× molar excess
Description: as §1

[2] = FIGS. 20-22, GAR conjugates purified with 200 μl of resin/mg of protein

Substance: Alexa Fluor 647
- Quenching (HDAC2; FIGS. 14-16, GAR conjugates at 2.5×-15× molar excess): significant quenching at high molar excesses
- Fluorescence intensity (Mean Total Intensity) (HDAC2; [2]): highest binding intensity at 2.5× dye molar excess
- Quenching (HDAC2; [2]): significant quenching above 2.5× molar excess
- Fluorescence intensity (Mean Total Intensity) [1]: highest binding intensity at 2.5× dye molar excess
- Quenching [1]: significant quenching above 2.5× molar excess
